Measurements: patent publication US8802597B2, “Herbicidal pyrimidines” (E I du Pont de Nemours and Company, priority 2003, dated 2014)
Read-outs that look alike come from different tables or passages of the source.

Key:
Experiment in all cases: Test C pre/postemergence
Assay type in all cases: in vivo
[1] = test system: johnsongrass (Sorghum halepense); settings: Sorghum halepense; for pest or weed control at 31 g/ha: 31 g ai/ha; for pest or weed control at 62 g/ha: 62 g ai/ha
Procedure, shortened: (§1)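 Greenhouse herbicide screen, visual readout. Compound in solvent/surfactant applied preemergence at planting or postemergence to 1- to 4-leaf plants; assessed at 12–14 days on a 0–100 control scale.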

[2] = test system: crabgrass (Digitaria sanguinalis); settings: Digitaria sanguinalis; for pest or weed control at 8 g/ha: 8 g ai/ha; for pest or weed control at 16 g/ha: 16 g ai/ha; for pest or weed control at 31 g/ha: 31 g ai/ha; for pest or weed control at 62 g/ha: 62 g ai/ha
Procedure, shortened: as §1

[3] = test system: yellow nutsedge (Cyperus esculentus); settings: Cyperus; for pest or weed control at 8 g/ha: 8 g ai/ha; for pest or weed control at 16 g/ha: 16 g ai/ha; for pest or weed control at 31 g/ha: 31 g ai/ha; for pest or weed control at 62 g/ha: 62 g ai/ha
Procedure, shortened: as §1

[4] = test system: cocklebur (Xanthium strumarium); settings: Xanthium strumarium; for pest or weed control at 8 g/ha: 8 g ai/ha; for pest or weed control at 16 g/ha: 16 g ai/ha; for pest or weed control at 31 g/ha: 31 g ai/ha; for pest or weed control at 62 g/ha: 62 g ai/ha
Procedure, shortened: as §1

[5] = test system: giant foxtail (Setaria faberii); settings: Setaria faberi; for pest or weed control at 8 g/ha: 8 g ai/ha; for pest or weed control at 31 g/ha: 31 g ai/ha; for pest or weed control at 62 g/ha: 62 g ai/ha
Procedure, shortened: as §1

[6] = test system: Surinam grass (Brachiaria decumbens); settings: Urochloa decumbens; for pest or weed control at 8 g/ha: 8 g ai/ha; for pest or weed control at 16 g/ha: 16 g ai/ha; for pest or weed control at 31 g/ha: 31 g ai/ha; for pest or weed control at 62 g/ha: 62 g ai/ha
Procedure, shortened: as §1

[7] = post-emergence, Postemergence, read-out: Plant response rating (scale of 0 to 100), Johnsongrass
[8] = pre-emergence, Preemergence, scale 0 to 100, 0 no effect, 100 complete control, read-out: Plant response rating, Johnsongrass
[9] = post-emergence, Postemergence, read-out: Plant response rating (scale of 0 to 100), Crabgrass
[10] = pre-emergence, Preemergence, scale 0 to 100, 0 no effect, 100 complete control, read-out: Plant response rating, Crabgrass
[11] = post-emergence, Postemergence, read-out: Plant response rating (scale of 0 to 100), Nutsedge, Yellow
[12] = pre-emergence, Preemergence, scale 0 to 100, 0 no effect, 100 complete control, read-out: Plant response rating, Nutsedge, Yellow
[13] = post-emergence, Postemergence, read-out: Plant response rating (scale of 0 to 100), Cocklebur
[14] = pre-emergence, Preemergence, scale 0 to 100, 0 no effect, 100 complete control, read-out: Plant response rating, Cocklebur
[15] = post-emergence, Postemergence, read-out: Plant response rating (scale of 0 to 100), Foxtail, Giant
[16] = pre-emergence, Preemergence, scale 0 to 100, 0 no effect, 100 complete control, read-out: Plant response rating, Foxtail, Giant
[17] = post-emergence, Postemergence, read-out: Plant response rating (scale of 0 to 100), Surinam Grass
[18] = pre-emergence, Preemergence, scale 0 to 100, 0 no effect, 100 complete control, read-out: Plant response rating, Surinam Grass

Nc1nc(-c2ccc(Br)cc2)nc(C(=O)O)c1Cl [Compound 95, 6-amino-2-(4-bromophenyl)-5-chloro-4-pyrimidinecarboxylic acid]
75%: pest or weed control at 31 g/ha [1, 7] | pest or weed control at 8 g/ha ([2]; post-emergence, Postemergence, scale 0 to 100, read-out: Plant response rating, Crabgrass) | pest or weed control at 16 g/ha [2, 9] | pest or weed control at 62 g/ha [3, 11] | pest or weed control at 31 g/ha [5, 15] | pest or weed control at 62 g/ha [6, 17]
30%: pest or weed control at 31 g/ha [2, 10] | pest or weed control at 31 g/ha [5, 16]
50%: pest or weed control at 16 g/ha ([1]; pre-emergence, Preemergence, 16 g ai/ha, scale 0 to 100, 0 no effect, 100 complete control, read-out: Plant response rating, Johnsongrass)
0%: pest or weed control at 8 g/ha ([1]; pre-emergence, Preemergence, 8 g ai/ha, scale 0 to 100 (0 no effect, 100 complete control), read-out: Plant response rating, Johnsongrass) | pest or weed control at 8 g/ha ([2]; pre-emergence, Preemergence, scale 0 to 100 (0 no effect, 100 complete control), read-out: Plant response rating, Crabgrass) | pest or weed control at 16 g/ha [2, 10] | pest or weed control at 8 g/ha ([3]; pre-emergence, Preemergence, scale 0 to 100 (0 no effect, 100 complete control), read-out: Plant response rating, Nutsedge, Yellow) | pest or weed control at 8 g/ha ([4]; pre-emergence, Preemergence, scale 0 to 100 (0 no effect, 100 complete control), read-out: Plant response rating, Cocklebur) | pest or weed control at 16 g/ha [4, 14] | pest or weed control at 31 g/ha [4, 14] | pest or weed control at 8 g/ha ([5]; pre-emergence, Preemergence, scale 0 to 100 (0 no effect, 100 complete control), read-out: Plant response rating, Foxtail, Giant) | pest or weed control at 16 g/ha ([5]; pre-emergence, Preemergence, 16 g ai/ha, scale 0 to 100, 0 no effect, 100 complete control, read-out: Plant response rating, Foxtail, Giant) | pest or weed control at 8 g/ha ([6]; pre-emergence, Preemergence, scale 0 to 100 (0 no effect, 100 complete control), read-out: Plant response rating, Surinam Grass) | pest or weed control at 16 g/ha [6, 18]
35%: pest or weed control at 62 g/ha [2, 10] | pest or weed control at 62 g/ha [5, 16]
80%: pest or weed control at 62 g/ha [1, 8] | pest or weed control at 31 g/ha [2, 9] | pest or weed control at 62 g/ha [2, 9] | pest or weed control at 62 g/ha [5, 15]
65%: pest or weed control at 16 g/ha [6, 17]
60%: pest or weed control at 31 g/ha [1, 8] | pest or weed control at 16 g/ha [3, 11] | pest or weed control at 31 g/ha [3, 11] | pest or weed control at 31 g/ha [3, 12] | pest or weed control at 62 g/ha [3, 12] | pest or weed control at 62 g/ha [4, 14]
70%: pest or weed control at 8 g/ha ([5]; post-emergence, Postemergence, scale 0 to 100, read-out: Plant response rating, Foxtail, Giant) | pest or weed control at 31 g/ha [6, 17]
90%: pest or weed control at 62 g/ha [1, 7]
100%: pest or weed control at 8 g/ha ([4]; post-emergence, Postemergence, scale 0 to 100, read-out: Plant response rating, Cocklebur) | pest or weed control at 16 g/ha [4, 13] | pest or weed control at 31 g/ha [4, 13] | pest or weed control at 62 g/ha [4, 13]
55%: pest or weed control at 8 g/ha ([3]; post-emergence, Postemergence, scale 0 to 100, read-out: Plant response rating, Nutsedge, Yellow) | pest or weed control at 8 g/ha ([6]; post-emergence, Postemergence, scale 0 to 100, read-out: Plant response rating, Surinam Grass)
5%: pest or weed control at 31 g/ha [6, 18]
40%: pest or weed control at 16 g/ha [3, 12]
10%: pest or weed control at 62 g/ha [6, 18]
